In PubChem BioAssay AID248 (DTP/NCI, 2004):
Several values for one entry are separate records, joined by “and”; a condition that tells them apart may be missing. Equal entries are not always repeated. Inconclusive results and toxic doses are left out. No stated cut-off is given here; in the data, active means T/C of 150% or more; inactive means T/C below 125%.

Test system: L1210 leukemia ip in BDF1 mice, survival T/C
Experiment: NCI In Vivo Anticancer Drug Screen. Data for tumor model L1210 Leukemia (intraperitoneal) in B6D2F1 (BDF1) mice
Settings: endpoint: mean survival time, higher = longer survival
Procedure, shortened: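 Antitumor effect is assessed in tumor-bearing animals. Survival in the compound arm is compared with a vehicle-dosed control arm and expressed as their quotient.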

[1] = dose: 12.5 mg/kg/injection, schedule: Q04DX003 (ip), vehicle: saline
[2] = dose: 25.0 mg/kg/injection, schedule: Q04DX003 (ip), vehicle: saline
[3] = dose: 50.0 mg/kg/injection, schedule: Q04DX003 (ip), vehicle: saline
[4] = dose: 100.0 mg/kg/injection, schedule: Q01DX009 (ip), vehicle: Klucel (hydroxypropylcellulose) (HPC)
[5] = dose: 200.0 mg/kg/injection, schedule: Q01DX009 (ip), vehicle: Klucel (hydroxypropylcellulose) (HPC)
[6] = dose: 400.0 mg/kg/injection, schedule: Q01DX009 (ip), vehicle: Klucel (hydroxypropylcellulose) (HPC)
[7] = dose: 100.0 mg/kg/injection, schedule: Q04DX003 (ip), vehicle: saline with Tween-80
[8] = dose: 200.0 mg/kg/injection, schedule: Q04DX003 (ip), vehicle: saline with Tween-80
[9] = dose: 400.0 mg/kg/injection, schedule: Q04DX003 (ip), vehicle: saline with Tween-80
[10] = dose: 100.0 mg/kg/injection, schedule: Q04DX003 (ip), vehicle: Klucel (hydroxypropylcellulose) (HPC)
[11] = dose: 200.0 mg/kg/injection, schedule: Q04DX003 (ip), vehicle: Klucel (hydroxypropylcellulose) (HPC)
[12] = dose: 400.0 mg/kg/injection, schedule: Q04DX003 (ip), vehicle: Klucel (hydroxypropylcellulose) (HPC)
[13] = dose: 200.0 mg/kg/injection, schedule: Q01DX001 (ip), vehicle: saline
[14] = dose: 100.0 mg/kg/injection, schedule: Q01DX001 (ip), vehicle: saline
[15] = dose: 75.0 mg/kg/injection, schedule: Q01DX001 (ip), vehicle: carboxymethylcellulose (CMC)
[16] = dose: 150.0 mg/kg/injection, schedule: Q01DX001 (ip), vehicle: carboxymethylcellulose (CMC)
[17] = dose: 400.0 mg/kg/injection, schedule: Q01DX001 (ip), vehicle: saline

Measured: T/C

C/C(CCCCl)=N/N=C(N)N
inactive: [1] 100 % of control | dose: 18.75 mg/kg/injection, schedule: Q01DX009 (ip), vehicle: saline with Tween-80 96 % of control | [2] 110 % of control | dose: 37.5 mg/kg/injection, schedule: Q01DX009 (ip), vehicle: saline with Tween-80 90 % of control | [3] 103 % of control | dose: 75.0 mg/kg/injection, schedule: Q01DX009 (ip), vehicle: saline with Tween-80 94 % of control | dose: 75.0 mg/kg/injection, schedule: Q04DX003 (ip), vehicle: acetone 95 % of control | dose: 110.0 mg/kg/injection, schedule: Q01DX009 (ip), vehicle: saline with Tween-80 98 % of control

Cc1cc(=O)[nH]c(NC(C)C(=O)O)n1 (configuration not stated)
inactive: [1] 101 % of control | [2] 101 % of control | [3] 101 % of control

C[N+](C)(Cc1ccc(Cl)cc1)C1c2ccccc2-c2ccccc21
inactive: dose: 6.0 mg/kg/injection, schedule: Q04DX003 (ip), vehicle: saline 93 % of control | dose: 12.0 mg/kg/injection, schedule: Q04DX003 (ip), vehicle: saline 102 % of control | dose: 12.5 mg/kg/injection, schedule: Q01DX009 (ip), vehicle: saline 106 % of control | dose: 25.0 mg/kg/injection, schedule: Q01DX009 (ip), vehicle: saline 101 % of control | [2] 94 % of control and 91 % of control | dose: 50.0 mg/kg/injection, schedule: Q01DX009 (ip), vehicle: saline 98 % of control | [3] 87 % of control

COc1ccc(Cl)cc1NC(=O)Oc1cc(C)c(Cl)c(C)c1
inactive: [4] 104 % of control | [5] 95 % of control | [6] 112 % of control

CCCCCCCCCCCCC/C=C/CC(CC(=O)O)C(=O)Nc1ccc(-n2c(=O)cc(C)n2C)cc1 (configuration not stated)
inactive: [7] 92 % of control | [8] 94 % of control | [9] 92 % of control

CCCCC(N)C(=O)O (configuration not stated)
inactive: [10] 98 % of control | [11] 95 % of control | [12] 98 % of control

COC(=O)/C=C(\C)Nc1cccc([N+](=O)[O-])c1
inactive: dose: 100.0 mg/kg/injection, schedule: Q01DX001 (ip), vehicle: other 94 % of control

Cc1c(CN(C)C)cccc1C(=O)Nc1ccccc1
inactive: dose: 50.0 mg/kg/injection, schedule: Q01DX001 (ip), vehicle: saline 115 % of control | [13] 104 % of control

COc1ccc(OC)c(NC(=O)Oc2ccccc2C(N)=O)c1
inactive: dose: 25.0 mg/kg/injection, schedule: Q04DX003 (ip), vehicle: Klucel (hydroxypropylcellulose) (HPC) 89 % of control | dose: 50.0 mg/kg/injection, schedule: Q04DX003 (ip), vehicle: Klucel (hydroxypropylcellulose) (HPC) 95 % of control | [10] 94 % of control and 92 % of control

C=C(Br)CNC(=O)NN1CCOCC1
inactive: dose: 100.0 mg/kg/injection, schedule: Q01DX001 (ip), vehicle: Klucel (hydroxypropylcellulose) (HPC) 115 % of control | [10] 95 % of control | dose: 200.0 mg/kg/injection, schedule: Q01DX001 (ip), vehicle: Klucel (hydroxypropylcellulose) (HPC) 111 % of control | [11] 98 % of control | dose: 400.0 mg/kg/injection, schedule: Q01DX001 (ip), vehicle: Klucel (hydroxypropylcellulose) (HPC) 102 % of control | [12] 97 % of control

CC1CCc2c(c3c(=O)[nH]c(=O)[nH]c3oc2=O)C1 (configuration not stated)
inactive: dose: 50.0 mg/kg/injection, schedule: Q01DX009 (ip), vehicle: Klucel (hydroxypropylcellulose) (HPC) 105 % of control | [4] 93 % of control | [5] 89 % of control

O=C(Nc1cc(NC(=O)Oc2ccccc2)cc([N+](=O)[O-])c1)Oc1ccccc1
inactive: [7] 96 % of control | [8] 103 % of control | [9] 88 % of control

COC(=O)CC(CC(=O)OC)c1ccc(OC)c([N+](=O)[O-])c1
inactive: dose: 25.6 mg/kg/injection, schedule: Q04DX002 (ip), vehicle: saline with Tween-80 101 % of control | dose: 64.0 mg/kg/injection, schedule: Q04DX002 (ip), vehicle: saline with Tween-80 101 % of control | dose: 160.0 mg/kg/injection, schedule: Q04DX002 (ip), vehicle: saline with Tween-80 97 % of control | dose: 400.0 mg/kg/injection, schedule: Q04DX002 (ip), vehicle: saline with Tween-80 93 % of control

NC(N)=N/N=C/C/C=N/N=C(N)N
inactive: dose: 15.0 mg/kg/injection, schedule: Q01DX Z (ip), vehicle: saline 97 % of control | dose: 30.0 mg/kg/injection, schedule: Q01DX Z (ip), vehicle: saline 100 % of control | dose: 60.0 mg/kg/injection, schedule: Q01DX Z (ip), vehicle: saline 96 % of control | dose: 120.0 mg/kg/injection, schedule: Q01DX Z (ip), vehicle: saline 100 % of control | dose: 120.0 mg/kg/injection, schedule: Q01DX Z (oral), vehicle: saline 102 % of control | dose: 240.0 mg/kg/injection, schedule: Q01DX Z (oral), vehicle: saline 102 % of control | dose: 480.0 mg/kg/injection, schedule: Q01DX Z (oral), vehicle: saline 107 % of control | dose: 960.0 mg/kg/injection, schedule: Q01DX Z (oral), vehicle: saline 103 % of control

Clc1ccc(-n2cnnn2)cc1
inactive: [14] 98 % of control | [13] 98 % of control

Cc1ccc(CCOC(=O)c2cc([N+](=O)[O-])cc([N+](=O)[O-])c2)cc1
inactive: [15] 94 % of control | [16] 94 % of control | dose: 300.0 mg/kg/injection, schedule: Q01DX001 (ip), vehicle: carboxymethylcellulose (CMC) 90 % of control

CC(=O)NC(CSSCC(N)C(=O)O)C(=O)O (configuration not stated) (tested in a mixture with another compound)
inactive: dose: 12.5 mg/kg/injection, schedule: Q04DX002 (ip), vehicle: DMSO 93 % of control | dose: 25.0 mg/kg/injection, schedule: Q04DX002 (ip), vehicle: DMSO 103 % of control | dose: 50.0 mg/kg/injection, schedule: Q04DX002 (ip), vehicle: DMSO 93 % of control

O=S(=O)(OCCCC1CC2C=CC1C2)c1ccc(Br)cc1 (configuration not stated)
inactive: [15] 104 % of control | dose: 75.0 mg/kg/injection, schedule: Q04DX003 (ip), vehicle: carboxymethylcellulose (CMC) 89 % of control | [16] 91 % of control | dose: 150.0 mg/kg/injection, schedule: Q04DX003 (ip), vehicle: carboxymethylcellulose (CMC) 100 % of control | dose: 300.0 mg/kg/injection, schedule: Q04DX003 (ip), vehicle: carboxymethylcellulose (CMC) 98 % of control

O=S(=O)(Cc1ccccc1)C(Cl)(Cl)c1ccccc1
inactive: [14] 91 % of control | [4] 96 % of control | [10] 110 % of control | [13] 107 % of control | [5] 102 % of control | [11] 104 % of control | [17] 105 % of control | [6] 95 % of control | [12] 103 % of control

Clc1ccccc1-c1ccc2c(Cl)ccnc2c1
inactive: [14] 95 % of control | [13] 95 % of control | [17] 91 % of control
